Data taken from patent publication US20230114627A1, “COMPOSITION COMPRISING A METAL ASCORBO-CAMPHORATE COMPOUND AND METHOD FOR PREVENTION AND/OR TREATMENT OF PAPILLOMAVIRUS INFECTIONS” (MGB PHARMA Inc., priority 2020, published 2023).

Tested on: HEC-1A cells
Experiment: Cytokine/chemokine MultiPlex assay (BioPlex 200) of HEC-1A secretion
Assay type: cell-based
Conditions: 24 hours
Excerpt: In the model as provided in this example, a method to assess the pro-inflammatory character of antivirals intended to be applied as mucosal topicals was used.
Epithelial cells are capable of secreting a set of molecules called cytokines and chemokines, which are responsible for the recruitment and activation of immune cells at the site of secretion. This process can be deleterious in the context of sexual transmission of HIV-1 because the recruited cells are the preferred targets of the virus. […] A microbicide candidate should therefore not promote inflammation by activating the production of this type of molecule by the cells directly in contact with the substance (epithelial cells). These secretions can be deleterious in the context of sexual transmission of HIV-1 or HPV and other papillomaviruses because the recruited cells are the preferred targets of the virus. A microbicide candidate must thus not promote inflammation by activating the production of these types of molecules by the cells in contact with the substance (epithelial cells).
After 24 hours of incubation, a panel of 48 inflammation-related cytokines/chemokines is assayed by MultiPlex (BioPlex 200 BioRad) in the basal medium.

zinc tetra-ascorbo-camphorate [C14]
CTACK (0 μM): 4.29 pg/mL | Eotaxin (0 μM): 0.87 pg/mL | FGF (0 μM): 1.515 pg/mL | G-CSF (0 μM): 1.885 pg/mL | GM-CSF (0 μM): 7.005 pg/mL | GROα (0 μM): 2.75 pg/mL | HGF (0 μM): 3.63 pg/mL | IFN-α2 (0 μM): 4.08 pg/mL | IFN-γ (0 μM): 94.255 pg/mL | IL-1rα (0 μM): 18.105 pg/mL | IL-1α (0 μM): 0 pg/mL | IL-1β (0 μM): 0.335 pg/mL | IL-2 (0 μM): 0.25 pg/mL | IL-2rα (0 μM): 4.06 pg/mL | IL-3 (0 μM): 6.785 pg/mL | IL-4 (0 μM): 0.16 pg/mL | IL-5 (0 μM): 0 pg/mL | IL-6 (0 μM): 0.435 pg/mL | IL-7 (0 μM): 3.95 pg/mL | IL-8 (0 μM): 971.01 pg/mL | IL-9 (0 μM): 25.865 pg/mL | IL-10 (0 μM): 3.085 pg/mL | IL-12 (0 μM): 98.495 pg/mL | IL-12ρ40 (0 μM): 0 pg/mL | IL-13 (0 μM): 3.34 pg/mL | IL-15 (0 μM): 0 pg/mL | IL-16 (0 μM): 0 pg/mL | IL-17 (0 μM): 0 pg/mL | IL-18 (0 μM): 0 pg/mL | IP-10 (0 μM): 6.19 pg/mL | LIF (0 μM): 0 pg/mL | M-CSF (0 μM): 3.725 pg/mL | MCP-1 (0 μM): 7.26 pg/mL | MCP-3 (0 μM): 0 pg/mL | MIF (0 μM): 6.92 pg/mL | MIG (0 μM): 3.09 pg/mL | MIP-1α (0 μM): 2.25 pg/mL | MIP-1β (0 μM): 1.32 pg/mL | PDGF-β (0 μM): 1.235 pg/mL | RANTES (0 μM): 12.86 pg/mL | SCF (0 μM): 0 pg/mL | SCGF-β (0 μM): 242.36 pg/mL | SDF-1α (0 μM): 13.03 pg/mL | TNF-α (0 μM): 4.9 pg/mL | TNF-β (0 μM): 0 pg/mL | TRAIL (0 μM): 3.43 pg/mL | VEGF (0 μM): 1384.84 pg/mL | β-NGF (0 μM): 1.04 pg/mL | effect on production of the 48 cytokines/chemokines (1 μM to 500 μM): did not affect the production | CTACK (5 μM): 4.29 pg/mL | Eotaxin (5 μM): 0 pg/mL | FGF (5 μM): 1.415 pg/mL | G-CSF (5 μM): 1.99 pg/mL | GM-CSF (5 μM): 6.24 pg/mL | GROα (5 μM): 0 pg/mL | HGF (5 μM): 5.43 pg/mL | IFN-α2 (5 μM): 3.58 pg/mL | IFN-γ (5 μM): 95.43 pg/mL | IL-1rα (5 μM): 10.215 pg/mL | IL-1α (5 μM): 0 pg/mL | IL-1β (5 μM): 0.31 pg/mL | IL-2 (5 μM): 0.105 pg/mL | IL-2rα (5 μM): 4.29 pg/mL | IL-3 (5 μM): 6.785 pg/mL | IL-4 (5 μM): 0.05 pg/mL | IL-5 (5 μM): 0 pg/mL | IL-6 (5 μM): 0.34 pg/mL | IL-7 (5 μM): 3.38 pg/mL | IL-8 (5 μM): 941.46 pg/mL | IL-9 (5 μM): 25.535 pg/mL | IL-10 (5 μM): 3.395 pg/mL | IL-12 (5 μM): 98.855 pg/mL | IL-12ρ40 (5 μM): 0 pg/mL | IL-13 (5 μM): 4.8 pg/mL | IL-15 (5 μM): 0 pg/mL | IL-16 (5 μM): 0 pg/mL | IL-17 (5 μM): 0 pg/mL | IL-18 (5 μM): 0 pg/mL | IP-10 (5 μM): 4.855 pg/mL | LIF (5 μM): 0 pg/mL | M-CSF (5 μM): 4.7 pg/mL | MCP-1 (5 μM): 5.105 pg/mL | MCP-3 (5 μM): 0 pg/mL | MIF (5 μM): 2.735 pg/mL | MIG (5 μM): 3.76 pg/mL | MIP-1α (5 μM): 2.105 pg/mL | MIP-1β (5 μM): 1.09 pg/mL | PDGF-β (5 μM): 0.865 pg/mL | RANTES (5 μM): 12.27 pg/mL | SCF (5 μM): 0 pg/mL | SCGF-β (5 μM): 258.645 pg/mL | SDF-1α (5 μM): 13.03 pg/mL | TNF-α (5 μM): 5.5 pg/mL | TNF-β (5 μM): 0 pg/mL | TRAIL (5 μM): 4.21 pg/mL | VEGF (5 μM): 1240.71 pg/mL | β-NGF (5 μM): 0.95 pg/mL | CTACK (10 μM): 3.45 pg/mL | Eotaxin (10 μM): 0 pg/mL | FGF (10 μM): 1.53 pg/mL | G-CSF (10 μM): 1.99 pg/mL | GM-CSF (10 μM): 6.65 pg/mL | GROα (10 μM): 0 pg/mL | HGF (10 μM): 5.43 pg/mL | IFN-α2 (10 μM): 4.08 pg/mL | IFN-γ (10 μM): 76.375 pg/mL | IL-1rα (10 μM): 14.085 pg/mL | IL-1α (10 μM): 0 pg/mL | IL-1β (10 μM): 0.33 pg/mL | IL-2 (10 μM): 0.305 pg/mL | IL-2rα (10 μM): 3.825 pg/mL | IL-3 (10 μM): 6.14 pg/mL | IL-4 (10 μM): 0.235 pg/mL | IL-5 (10 μM): 0 pg/mL | IL-6 (10 μM): 0.575 pg/mL | IL-7 (10 μM): 3.665 pg/mL | IL-8 (10 μM): 1115.205 pg/mL | IL-9 (10 μM): 26.025 pg/mL | IL-10 (10 μM): 3.17 pg/mL | IL-12 (10 μM): 103.16 pg/mL
